{"source": "paper PMC11939276", "about": "“Identifying Baicalein as a Key Bioactive Compound in XueBiJing Targeting KEAP1: Implications for Antioxidant Effects” (Antioxidants, 2025)", "molecular_target": "T1, KEAP1 (Homo sapiens, UniProt Q14145)", "T1 construct": "recombinant KEAP1 protein (Sino Biological No. 11981-HNCB)", "T1 sequence (Q14145 whole entry)": "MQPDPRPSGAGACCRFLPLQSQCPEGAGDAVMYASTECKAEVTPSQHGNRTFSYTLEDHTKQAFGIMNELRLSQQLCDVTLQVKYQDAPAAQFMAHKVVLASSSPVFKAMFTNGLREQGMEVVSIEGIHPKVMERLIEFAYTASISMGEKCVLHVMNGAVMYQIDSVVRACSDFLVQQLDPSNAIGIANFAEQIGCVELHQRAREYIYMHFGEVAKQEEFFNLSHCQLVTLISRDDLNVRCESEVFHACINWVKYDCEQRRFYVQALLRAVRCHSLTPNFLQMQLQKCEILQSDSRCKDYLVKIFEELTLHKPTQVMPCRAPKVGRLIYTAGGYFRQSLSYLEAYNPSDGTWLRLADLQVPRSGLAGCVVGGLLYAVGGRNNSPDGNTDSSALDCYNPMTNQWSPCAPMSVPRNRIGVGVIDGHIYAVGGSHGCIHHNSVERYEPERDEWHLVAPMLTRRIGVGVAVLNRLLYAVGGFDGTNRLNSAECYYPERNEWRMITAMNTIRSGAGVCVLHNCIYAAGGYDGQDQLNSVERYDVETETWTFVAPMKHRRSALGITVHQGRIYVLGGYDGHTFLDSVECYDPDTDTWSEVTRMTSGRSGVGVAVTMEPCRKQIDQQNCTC", "test": "SPR (Biacore X100, immobilized recombinant KEAP1); supported by CETSA-WB in MCF-7 lysate", "type": "binding"}
{"smiles": "O=c1cc(-c2ccccc2)oc2cc(O)c(O)c(O)c12", "note": "[Baicalein]", "values": [{"measurement": "Kd", "value": 158, "unit": "µM"}]}
